Measurements: patent publication US8846704B2, “Thiopyrimidine-based compounds and uses thereof” (YM Biosciences Austraila Pty Ltd, priority 2007, dated 2014)

Columns and labels:
[1] = molecular target: T1, human JAK2 (Homo sapiens, UniProt O60674); assay: Alphascreen tyrosine kinase enzyme assay, JAK2 kinase domain; assay type: biochemical; settings: read-out: JAK2 IC50_nM
T1 construct: The kinase domain of human JAK2 was amplified; GST (N); made in house; host or cells: Sf9 insect cells (baculovirus)
Outline: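 JAK2 kinase domain expressed in baculovirus/Sf9 and glutathione-affinity purified. Compounds (final […]) pre-incubated 20 min with enzyme in 10 mM HEPES pH 7.5, MgCl2, NaCl, vanadate, 0.1% Tween 20.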

[2] = tested on: CTLL2; assay: Cellular screening, CTLL2 cells, Alamar Blue; assay type: cell-based; settings: Mus musculus, CTLL-2, read-out: CTLL2 IC50_nM
Outline: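 Viability is read with Alamar Blue at 544 nm, the dye added for the final 4-6 hours. Compounds were incubated for 40 hr with CTLL2 cells taken from late-log-phase culture, at 37° C in 5% CO2.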

[3] = tested on: BaF3 wild-type cells; assay: Cellular screening, BaF3 wild-type cells, Alamar Blue; assay type: cell-based; settings: Mus musculus, 40 hr, read-out: BAF3wt IC50_nM
Outline: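 Compounds, screened from dilution plates at 20 μM, were added as 10× final stocks to cells grown in DMEM/10% FCS/10% WEHI 3B conditioned medium. Cells were seeded at 1.1× final (50,000–200,000 cells/mL) and incubated 40 hr at 37° C, 5% CO2. Viability was read at 544 nm after a further 4–6 hours with Alamar Blue.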

[4] = molecular target: T2, human JAK1 (Homo sapiens, UniProt P23458); assay: Alphascreen tyrosine kinase enzyme assay, JAK1 kinase domain; assay type: biochemical; settings: read-out: JAK1 IC50_nM
T2 construct: The kinase domain of human JAK1 was amplified; GST (N); made in house; host or cells: Sf9 insect cells (baculovirus)
Experimental: For screening purposes, compounds (in 100% DMSO) were warmed at 37 degrees for at least 20 minutes before use. A […] stock was initially made in assay buffer, where the final concentration of DMSO was 0.3%. The stocks were then diluted in 384 well Optiplates (Packard) where the final concentration of the compound was […].
The kinase domain of human JAK1 was amplified from U937mRNA using the polymerase chain reaction with the following primers: […]
The JAK1 PCR products were cloned into the pDest20 destination vector (Gibco). The JAK1 plasmid was then transformed into competent DH10Bac cells (Gibco), and the recombinant baculovirus was prepared via Sf9 insect cell transfection.
Baculovirus preparations from each of the constructs were infected into either one or five liters of Sf9 cells (Invitrogen) grown in SF-900 medium (Invitrogen) to a cell density of approximately 1-2×10^6 cells/ml. Cells were infected with virus at a MOI of 0.8-3.0. Cells were harvested and lysed. Tyrosine kinase domains were purified by affinity chromatography on a glutathione-agarose column (Scientifix Pty. Ltd. catalog #: GSH-200).
Kinase assays were performed in 384 well Optiplates (Packard) using an Alphascreen Protein Tyrosine Kinase PY100 detection kit The compounds were pre-incubated with affinity purified PTK domain in the presence of phosphotyrosine assay buffer (10 mM HEPES, pH 7.5, 100 mM MgCl2, 25 mM NaCl, […] and 0.1% Tween 20) for 20 minutes. The compounds were then incubated with substrate in the presence of ATP. The substrate used was susbtrate-1 with the sequence biotin-EGPWLEEEEEAYGWMDF-NH2 [SEQ. ID. NO. 13] (final concentration […]). For HCK 80 μm ATP was used and incubated for 60 minutes. Alphascreen phosphotyrosine acceptor beads followed by streptavidin donor beads at a concentration of 1/100 in stop buffer were added to each well under subdued light and incubated for 2-3 hours., The Alphascreen plates were read on a Packard Fusion Alpha instrument.

[5] = molecular target: T3, human JAK3 (Homo sapiens, UniProt P52333); assay: Alphascreen tyrosine kinase enzyme assay, JAK3 kinase domain; assay type: biochemical; settings: read-out: JAK3 IC50_nM
T3 construct: The kinase domain of human JAK3 was amplified; GST (N); made in house; host or cells: Sf9 insect cells (baculovirus)
Outline: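 GST-affinity-purified human JAK3 kinase domain (baculovirus/Sf9) was pre-incubated 20 min with compound ([…]) in HEPES pH 7.5 buffer with MgCl2, vanadate and Tween 20. Biotinylated peptide substrate ([…]) and ATP were then added; phosphotyrosine was detected by AlphaScreen PY100 acceptor and streptavidin donor beads after 2–3 h.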

T1 sequence (O60674 849-1124 limits assumed): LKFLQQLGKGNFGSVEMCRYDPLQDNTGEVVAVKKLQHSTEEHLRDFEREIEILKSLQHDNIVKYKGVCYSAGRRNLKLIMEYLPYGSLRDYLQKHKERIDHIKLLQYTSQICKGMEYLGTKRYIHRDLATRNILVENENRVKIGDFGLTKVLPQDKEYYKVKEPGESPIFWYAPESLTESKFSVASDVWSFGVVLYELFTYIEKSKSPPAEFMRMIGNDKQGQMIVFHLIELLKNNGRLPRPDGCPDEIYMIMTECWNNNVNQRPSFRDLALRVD
T3 sequence (P52333 822-1111 limits assumed): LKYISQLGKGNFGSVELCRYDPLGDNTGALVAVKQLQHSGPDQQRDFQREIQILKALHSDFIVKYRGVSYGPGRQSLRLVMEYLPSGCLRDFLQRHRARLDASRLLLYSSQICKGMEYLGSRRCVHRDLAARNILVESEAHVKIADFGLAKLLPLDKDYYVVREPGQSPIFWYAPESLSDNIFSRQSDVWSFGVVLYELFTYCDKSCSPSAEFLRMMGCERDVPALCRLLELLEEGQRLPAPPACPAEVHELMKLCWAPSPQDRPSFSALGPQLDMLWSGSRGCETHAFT
T2 sequence (P23458 875-1153 limits assumed): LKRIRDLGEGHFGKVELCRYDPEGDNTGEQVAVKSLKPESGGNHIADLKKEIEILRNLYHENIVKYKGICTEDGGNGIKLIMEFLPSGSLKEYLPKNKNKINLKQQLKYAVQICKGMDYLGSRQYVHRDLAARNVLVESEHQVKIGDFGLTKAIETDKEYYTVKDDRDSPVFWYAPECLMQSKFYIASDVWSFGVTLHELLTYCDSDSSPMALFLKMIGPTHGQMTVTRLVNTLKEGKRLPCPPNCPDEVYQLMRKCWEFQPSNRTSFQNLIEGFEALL

| SMILES | IC50 [1] [µM] | IC50 [2] [µM] | IC50 [3] [µM] | IC50 [4] [µM] | IC50 [5] [µM] |
| --- | --- | --- | --- | --- | --- |
| Cc1cc(N)ccc1Sc1nc(Nc2ccc(N3CCOCC3)cc2)ncc1C [Compound 162, 4-(4-ao-2-methylphenylthio)-5-methyl-N-(4-morpholinophenyl)pyrimidin-2-ae] | < 1 | < 5 | < 20 | < 0.5 | < 0.1 |
| C=CC(=O)Nc1ccc(Sc2nc(Nc3ccc(N4CCOCC4)cc3)ncc2C)c(C)c1 [Compound 163, N-(3-methyl-4-(5-methyl-2-(4-morpholinophenylao)pyrimidin-4-ylthio)phenyl)acrylamide] | > 1 | < 1 | > 20 | > 1 | < 0.1 |
| Cc1cnc(Nc2ccc(N3CCOCC3)cc2)nc1Sc1c(C)cc(N)cc1C [Compound 165, 4-(4-ao-2,6-dimethylphenylthio)-5-methyl-N-(4-morpholinophenyl)pyrimidin-2-ae] | > 1 | > 20 | > 20 | > 1 | < 0.5 |
| C=CC(=O)N(C)c1ccc(Sc2nc(Nc3ccc(N4CCOCC4)cc3)ncc2C)cc1 [Compound 173, N-methyl-N-(4-(5-methyl-2-(4-morpholinophenylao)pyrimidin-4-ylthio)phenyl)acrylamide] | < 0.5 | < 1 | < 20 | < 0.5 | < 0.1 |
| Cc1cnc(Nc2ccc(O)cc2)nc1Sc1ccc(NC(=O)CCl)cc1 [Compound 193, 2-chloro-N-(4-(2-(4-hydroxyphenylao)-5-methylpyrimidin-4-ylthio)phenyl)acetamide] | > 1 | < 1 | < 5 | > 1 | < 0.1 |
| Cc1cnc(Nc2cccc(O)c2)nc1Sc1ccc(NC(=O)CCl)cc1 [Compound 194, 2-chloro-N-(4-(2-(3-hydroxyphenylao)-5-methylpyrimidin-4-ylthio)phenyl)acetamide] | > 1 | < 1 | < 5 | > 1 | < 0.1 |
| N#Cc1ncn(Cc2ccc(Sc3ccnc(Nc4ccc(N5CCOCC5)cc4)n3)cc2)c1C#N [Compound 201, 1-(4-(2-(4-morpholinophenylao)pyrimidin-4-ylthio)benzyl)-1H-imidazole-4,5-dicarbonitrile] | > 1 | < 5 | < 5 | > 1 | < 0.1 |
| Cc1cnc(Nc2ccc(N3CCOCC3)cc2)nc1Sc1ccc(NC(=O)CSCC(=O)O)cc1 [Compound 230, 2-(2-(4-(5-methyl-2-(4-morpholinophenylao)pyrimidin-4-ylthio)phenylao)-2-oxoethylthio)acetic acid] | < 0.5 | > 20 | > 20 | < 1 | < 0.1 |
| Cc1cnc(Nc2ccc(N3CCOCC3)cc2)nc1Sc1ccc(N2C(=O)CSCC2=O)cc1 [Compound 231, 4-(4-(5-methyl-2-(4-morpholinophenylao)pyrimidin-4-ylthio)phenyl)thiomorpholine-3,5-dione] | > 1 | < 20 | > 20 | > 1 | < 0.1 |
| C=CC(=O)Nc1ccc(Sc2nc(Nc3ccc(N4CCN(C)CC4)cc3)ncc2C)cc1 [Compound 239, N-(4-(5-methyl-2-(4-(4-methylpiperazin-1-yl)phenylao)pyrimidin-4-ylthio)phenyl)acrylamide] | < 1 | < 1 | < 5 | < 0.5 | < 0.1 |
| C=CC(=O)Nc1ccc(Sc2nc(Nc3ccc(OC)c(OC)c3)ncc2C)cc1 [Compound 241, N-(4-(2-(3,4-dimethoxyphenylao)-5-methylpyrimidin-4-ylthio)phenyl)acrylamide] | > 1 | < 1 | < 20 | > 1 | < 0.1 |
| C=CC(=O)Nc1ccc(Sc2nc(Nc3cccc(N4CCN(C)CC4)c3)ncc2C)cc1 [Compound 243, N-(4-(5-methyl-2-(3-(4-methylpiperazin-1-yl)phenylao)pyrimidin-4-ylthio)phenyl)acrylamide] | > 1 | < 1 | < 5 | > 1 | < 0.1 |
| C=CC(=O)Nc1ccc(Sc2nc(Nc3ccc(N4CCOCC4)c(OC)c3)ncc2C)cc1 [Compound 248, N-(4-(2-(3-methoxy-4-morpholinophenylao)-5-methylpyrimidin-4-ylthio)phenyl)acrylamide] | > 1 | < 1 | < 5 | > 1 | < 0.1 |
| C=CC(=O)N(C)c1ccc(Sc2nc(Nc3ccc(N4CCOCC4)cc3)ncc2Br)cc1 [Compound 261, N-(4-(5-bromo-2-(4-morpholinophenylao)pyrimidin-4-ylthio)phenyl)-N-methylacrylamide] | < 0.5 | < 1 | > 20 | > 1 | < 0.1 |
| C=CC(=O)Nc1ccc(Sc2nc(Nc3cccc(N4CCOCC4)c3)ncc2F)cc1 [Compound 267, N-(4-(5-fluoro-2-(3-morpholinophenylao)pyrimidin-4-ylthio)phenyl)acrylamide] | > 1 | < 1 | < 5 | > 1 | < 0.1 |
| C=CC(=O)Nc1ccc(Sc2nc(Nc3ccc(N4CCOCC4)cc3)ncc2F)cc1 [Compound 268, N-(4-(5-fluoro-2-(4-morpholinophenylao)pyrimidin-4-ylthio)phenyl)acrylamide] | > 1 | < 1 | > 20 | > 1 | < 0.1 |
| C=CC(=O)Nc1ccc(Sc2nc(Nc3cccc(CO)c3)ncc2C)cc1 [Compound 280, N-(4-(2-(3-(hydroxymethyl)phenylao)-5-methylpyrimidin-4-ylthio)phenyl)acrylamide] | > 1 | < 1 | < 20 | > 1 | < 0.1 |
| C=CC(=O)Nc1ccc(Sc2nc(Nc3ccc(NS(C)(=O)=O)cc3)ncc2C)cc1 [Compound 285, N-(4-(5-methyl-2-(4-(methylsulfonamido)phenylao)pyrimidin-4-ylthio)phenyl)acrylamide] | > 1 | < 1 | < 5 | > 1 | < 0.1 |
| C=CC(=O)Nc1ccc(Sc2nc(Nc3ccc(N4CCC(CO)CC4)cc3)ncc2C)cc1 [Compound 286, N-(4-(2-(4-(4-(hydroxymethyl)piperidin-1-yl)phenylao)-5-methylpyrimidin-4-ylthio)phenyl)acrylamide] | > 1 | < 1 | > 20 | > 1 | < 0.1 |
| C=CC(=O)Nc1ccc(Sc2nc(Nc3cccc(NS(C)(=O)=O)c3)ncc2C)cc1 [Compound 288, N-(4-(5-methyl-2-(3-(methylsulfonamido)phenylao)pyrimidin-4-ylthio)phenyl)acrylamide] | > 1 | < 1 | < 20 | > 1 | < 0.1 |
| C=CC(=O)Nc1ccc(Sc2nc(Nc3ccc(OCCN4CCOCC4)cc3)ncc2C)cc1 [Compound 290, N-(4-(5-methyl-2-(4-(2-morpholinoethoxy)phenylao)pyrimidin-4-ylthio)phenyl)acrylamide] | > 1 | < 1 | < 5 | > 1 | < 0.1 |
